Calls of active or inactive are those of the source. The calls are words filed in the database; no cut-off is given here.
What was measured:
[1] = Solubility of compound in DMSO-H2O; assay type: physicochemical
[2] = Distribution coefficient, logD of compound; assay type: physicochemical; conditions: octanol/water
[3] = Ratio of drug level in tumor to muscle of BALB/c mouse implanted with mouse 4T1 cells at 0.5 mg/kg, iv measured at 12 to 24 hrs; assay type: ADME, organism-based; conditions: in vivo, time 12-24 hrs
[4] = Drug uptake in mouse 4T1 cells assessed as increase in green fluorescence intensity at 5 uM incubated for 30 mins by F-actin staining staining based microscopic analysis; assay type: ADME, cell-based; conditions: 4t1, 0.5 h
[5] = Antioxidant activity of compound in presence of ROS; assay type: functional
[6] = Antioxidant activity of compound in presence of RNS; assay type: functional
[7] = Antioxidant activity of compound in presence of RSS; assay type: functional
[8] = Antioxidant activity of compound in presence of Fe3+; assay type: functional
[9] = Antioxidant activity of compound in presence of NH4+; assay type: functional
[10] = Antioxidant activity of compound in presence of SO4; assay type: functional
[11] = Antioxidant activity of compound in presence of Cl-; assay type: functional
[12] = Antioxidant activity of compound in presence of OH; assay type: functional
[13] = Antioxidant activity of compound in presence of TBHP; assay type: functional
NCI-H226 [14] = assay: Cytotoxicity against human NCI-H226 assessed as decrease in cell viability up to 10 uM incubated for 24 hrs by CCK-8 assay; assay type: functional, cell-based
[15] = Acute toxicity in BALB/c mouse implanted with mouse 4T1 cells at 5 mg/kg, iv measured for 11 days; assay type: organism-based; conditions: in vivo, 264 h, time 11 day
[16] = Toxicity in BALB/c mouse implanted with mouse 4T1 cells assessed as heart damage at 5 mg/kg, iv measured for 11 days by H and E staining based analysis; assay type: organism-based; conditions: in vivo, 264 h, time 11 day
NCI-H226 [17] = assay: Induction of DNA damage in human NCI-H226 cells assessed as increase in gamma-H2AX level at 5 uM incubated for 24 hrs by immunofluorescence analysis; assay type: functional, cell-based
NCI-H226 [18] = assay: Induction of apoptosis in human NCI-H226 cells assessed as viable cells at 5 uM incubated for 48 hrs by Annexin V-FITC/PI staining based flow cytometry (reference value: 93.4 %); assay type: functional; conditions: read-out: Activity

## CCCN1/C(=C/C=C2\CCCC(/C=C/C3=[N+](Cc4ccc(C(=O)O)cc4)c4ccccc4C3(C)C)=C2Cl)C(C)(C)c2ccccc21.[Br-]
[1]
  solubility: 170 µg/mL
[2]
  logD: 4.49
[3]
  Ratio: > 5
[4]
  Drug uptake: Active
[5]
  Activity: Active
[6]
  Activity: Active
[7]
  Activity: Active
[8]
  Activity: Active
[9]
  Activity: Active
[10]
  Activity: Active
[11]
  Activity: Active
[12]
  Activity: Active
[13]
  Activity: Active
NCI-H226 [14]
  Activity: Active
[15]
  Activity: Non-toxic
[16]
  Activity: Non-toxic
NCI-H226 [17]
  Activity: Active
NCI-H226 [18]
  viability at 5 µM: 26.3%

— ChEMBL document CHEMBL6134863, “Novel Mitochondria-Targeted Asymmetric Heptamethine Cyanine Dye for Cancer Targeted NIR Imaging and Potent Necrosis and Senescence Induction with Prolonged Retention” (J Med Chem, 2025)
